Experimental data as given in patent US20250263376A1, “(E)-N-CINNAMOYLAMINOALKANOLS WITH MELANOGENESIS INHIBITORY ACTIVITY” (Uniwersytet Jagiellonski, priority 2024, published 2025).

Columns and labels:
keratinocytes (HaCaT) [1] = experiment: Safety, MTT test in keratinocytes; type: cell-based; settings: 48 hours
Protocol: (§1) In order to test the safety of the compounds, both normal human cells were used: keratinocytes (HaCaT), fibroblasts (BJ), primary melanocytes that occur in the skin, as well as human cancer cells: the hepatocarcinoma line HepG2 and the neuroblastoma line SH-SY5Y, which are considered a model for the assessment of hepatocytotoxicity and neurocytotoxicity. The concentrations of the tested compounds in the range of […] were used in the studies. The cell lines used in the research were purchased from the American Type Culture Collection (ATCC) and were cultured in media recommended by the manufacturer with the addition of FBS and antibiotics in an incubator ensuring appropriate culture conditions, i.e. humidity, temperature and CO2 concentration. Cells were seeded into multiwell plates and incubated with the test compounds for 48 hours. After this time, MTT and LDH tests were performed to assess cell viability. The MTT test is based on the ability to transform the substrate: [3-(4,5-dimethyl-2-thiazolyl)-2,5-diphenyl-2H-tetrazolium bromide into a colored product only by living cells. The absorbance at 570 nm, which corresponds to the absorption maximum for the product, is directly proportional to cell viability. The LDH test is based on testing the activity of the enzyme lactate dehydrogenase in the culture medium, which is released from cells as a result of damage to the cell membrane, e.g. as a result of cell death. Triton X-100 was used as a positive control in the test. The determination is colorimetric, the substrate is transformed by the released enzyme into a colored product, an increase in absorbance indicates a larger amount of the released enzyme, and thus confirms greater damage to cell membranes. Tables 7 and 8 present the results obtained, which correspond to the viability of cells incubated with the compounds in relation to the viability of cells constituting a control sample, i.e. incubated with the solvent (DMSO) at the same concentration as in the case of the groups tested in the MTT test or in relation to the results obtained for the Triton X-100 positive control in the LDH test. They indicate that the compounds are safe at the concentrations tested.

keratinocytes (HaCaT) [2] = experiment: Safety, LDH test in keratinocytes; type: cell-based; settings: 48 hours, vs Triton X-100
Protocol: as §1

fibroblasts (BJ) [3] = experiment: Safety, MTT test in fibroblasts; type: cell-based; settings: 48 hours
Protocol: as §1

fibroblasts (BJ) [4] = experiment: Safety, LDH test in fibroblasts; type: cell-based; settings: 48 hours, vs Triton X-100
Protocol: as §1

primary melanocytes [5] = experiment: Safety, MTT test in primary melanocytes; type: cell-based; settings: 48 hours
Protocol: as §1

primary melanocytes [6] = experiment: Safety, LDH test in primary melanocytes; type: cell-based; settings: 48 hours, vs Triton X-100
Protocol: as §1

hepatocarcinoma HepG2 [7] = experiment: Safety, MTT test in HepG2; type: cell-based; settings: 48 hours
Protocol: as §1

hepatocarcinoma HepG2 [8] = experiment: Safety, LDH test in HepG2; type: cell-based; settings: 48 hours, vs Triton X-100
Protocol: as §1

neuroblastoma SH-SY5Y = experiment: Safety, MTT test in SH-SY5Y; type: cell-based; settings: 48 hours
Protocol: as §1

S. typhimurium TA1537 = experiment: Ames microplate test, TA1537; type: cell-based, Salmonella typhimurium
Protocol: Bacteria were grown overnight in growth medium.

[9] = tested on: Balb/c 3T3 murine fibroblast cell line; experiment: Phototoxicity, neutral red uptake in Balb/c 3T3 fibroblasts
Protocol: d) Phototoxicity Assessment Using the Balb/c 3T3 Murine Fibroblast Cell Line
Balb/c 3T3 cells, which are an immortalized murine fibroblast cell line, were purchased at ATTC and cultured in the medium recommended by the manufacturer (DMEM GlutaMAX, newborn calf serum (BCS), antibiotics). After multiplication, cells were placed in 96-well plates, which were incubated for 24 hours, after which all wells of the plates were washed with 150 μL of balanced salt solution (HBSS). Then, after drying the plates, 100 μL of a solution of the tested compounds in HBSS with 2% FBS was added to each well and incubated for an hour. After this time, some of the plates were irradiated using the Suntest CPS+sunlight simulator from Atlas with appropriate filters cutting off radiation with a wavelength <320 nm (UVA radiation intensity 5 J/cm^2). The second part of the plates was placed in radiation-free conditions for the same period of time. After the exposure time, the liquid was removed from all plates and the wells were washed twice with 150 μL of HBSS, then supplemented with fresh culture medium and incubated for 24 hours in an incubator (37° C., 5% CO2). Viability was assessed in the neutral red uptake test, which is based on the ability of the dye to penetrate only into living cells. Dye uptake was confirmed by absorbance measurement at 540 nm. […] The appropriate coefficients were also calculated: mean phototoxic effect (MPE) and photoirritation factor (PIF). PIF is the ratio of the IC50 values of unirradiated to irradiated cells, while MPE is based on the comparison of concentration-response curves.

S. typhimurium TA1535 = experiment: Ames microplate test, TA1535;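 note: bacteria exposed 90 min at 37 °C in exposure medium, then 48 h in indicator medium in 384-well plates, yellow (revertant) wells counted per condition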
Protocol: The study used the Ames microplate test (Ames MPF™ Penta 2 by Xenometrix, Allschwil, Switzerland). Growth medium, exposure medium, indicator medium, positive controls, hepatic microsomal fraction, NADP, glucose-6-phosphate, Salmonella typhimurium and Escherichia coli strains were components of the purchased experimental kit. Bacteria were grown overnight in growth medium. They were then exposed to the test compound at the appropriate concentration in exposure medium without or with the rat microsomal fraction S9 in 24-well plates for 90 min at 37° C. with shaking. Then, indicator medium was added to the wells and pipetted into 384-well plates, which were incubated for 48 hours at 37° C. without shaking. Results were assessed by counting the wells in which the medium turned yellow for each experimental condition.

## O=C(/C=C/c1ccccc1)NCCCCCO [Compound A-133, (2E)-N-(5-hydroxypentyl)-3-phenylprop-2-enamide]
Keratinocytes (HaCaT) [1]; 100 μM
  MTT, Keratinocytes (HaCaT): 101.35 ± 2.17 % of solvent control
Keratinocytes (HaCaT) [1]; 150 μM
  MTT, Keratinocytes (HaCaT): 101.40 ± 2.08 % of solvent control
Keratinocytes (HaCaT) [1]; 200 μM
  MTT, Keratinocytes (HaCaT): 101.51 ± 2.49 % of solvent control
Keratinocytes (HaCaT) [1]; 250 μM
  MTT, Keratinocytes (HaCaT): 95.53 ± 2.80 % of solvent control
Keratinocytes (HaCaT) [2]; 100 μM
  LDH, Keratinocytes (HaCaT): 3.23 percentage of positive control
Keratinocytes (HaCaT) [2]; 150 μM
  LDH, Keratinocytes (HaCaT): 3.08 percentage of positive control
Keratinocytes (HaCaT) [2]; 200 μM
  LDH, Keratinocytes (HaCaT): 6.38 percentage of positive control
Keratinocytes (HaCaT) [2]; 250 μM
  LDH, Keratinocytes (HaCaT): 19.58 percentage of positive control
Fibroblasts (BJ) [3]; 100 μM
  MTT, Fibroblasts (BJ): 99.41 ± 5.96 % of solvent control
Fibroblasts (BJ) [3]; 150 μM
  MTT, Fibroblasts (BJ): 91.68 ± 3.64 % of solvent control
Fibroblasts (BJ) [3]; 200 μM
  MTT, Fibroblasts (BJ): 87.76 ± 2.71 % of solvent control
Fibroblasts (BJ) [3]; 250 μM
  MTT, Fibroblasts (BJ): 82.50 ± 3.99 % of solvent control
Fibroblasts (BJ) [4]; 100 μM
  LDH, Fibroblasts (BJ): 5.00 percentage of positive control
Fibroblasts (BJ) [4]; 150 μM
  LDH, Fibroblasts (BJ): 4.47 percentage of positive control
Fibroblasts (BJ) [4]; 200 μM
  LDH, Fibroblasts (BJ): 14.72 percentage of positive control
Fibroblasts (BJ) [4]; 250 μM
  LDH, Fibroblasts (BJ): 28.31 percentage of positive control
Primary melanocytes [5]; 100 μM
  MTT, Primary melanocytes: 103.69 ± 2.57 % of solvent control
Primary melanocytes [5]; 150 μM
  MTT, Primary melanocytes: 101.88 ± 2.47 % of solvent control
Primary melanocytes [5]; 200 μM
  MTT, Primary melanocytes: 97.05 ± 2.96 % of solvent control
Primary melanocytes [5]; 250 μM
  MTT, Primary melanocytes: 88.88 ± 2.26 % of solvent control
Primary melanocytes [6]; 100 μM
  LDH, Primary melanocytes: 4.68 percentage of positive control
Primary melanocytes [6]; 150 μM
  LDH, Primary melanocytes: 7.59 percentage of positive control
Primary melanocytes [6]; 200 μM
  LDH, Primary melanocytes: 16.71 percentage of positive control
Primary melanocytes [6]; 250 μM
  LDH, Primary melanocytes: 19.45 percentage of positive control
Hepatocarcinoma HepG2 [7]; 100 μM
  MTT, Hepatocarcinoma HepG2: 104.96 ± 7.60 % of solvent control
Hepatocarcinoma HepG2 [7]; 150 μM
  MTT, Hepatocarcinoma HepG2: 100.66 ± 7.39 % of solvent control
Hepatocarcinoma HepG2 [7]; 200 μM
  MTT, Hepatocarcinoma HepG2: 99.09 ± 1.60 % of solvent control
Hepatocarcinoma HepG2 [7]; 250 μM
  MTT, Hepatocarcinoma HepG2: 98.92 ± 2.34 % of solvent control
Hepatocarcinoma HepG2 [8]; 100 μM
  LDH, Hepatocarcinoma HepG2: 5.31 percentage of positive control
Hepatocarcinoma HepG2 [8]; 150 μM
  LDH, Hepatocarcinoma HepG2: 7.07 percentage of positive control
Hepatocarcinoma HepG2 [8]; 200 μM
  LDH, Hepatocarcinoma HepG2: 9.65 percentage of positive control
Hepatocarcinoma HepG2 [8]; 250 μM
  LDH, Hepatocarcinoma HepG2: 16.13 percentage of positive control
Neuroblastoma SH-SY5Y; 100 μM
  MTT, Neuroblastoma SH-SY5Y: 101.50 ± 3.33 % of solvent control
Neuroblastoma SH-SY5Y; 150 μM
  MTT, Neuroblastoma SH-SY5Y: 100.75 ± 3.01 % of solvent control
Neuroblastoma SH-SY5Y; 200 μM
  MTT, Neuroblastoma SH-SY5Y: 100.62 ± 5.99 % of solvent control
Neuroblastoma SH-SY5Y; 250 μM
  MTT, Neuroblastoma SH-SY5Y: 100.41 ± 1.87 % of solvent control
S. typhimurium TA1537; 0.5 mM, + S9
  Increase in the number of yellow wells compared to the reference level, TA1537: 0.18
S. typhimurium TA1537; 0.5 mM, without S9
  Increase in the number of yellow wells compared to the reference level, TA1537: 1.07
S. typhimurium TA1537; 1.0 mM, + S9
  Increase in the number of yellow wells compared to the reference level, TA1537: 0.36
S. typhimurium TA1537; 1.0 mM, without S9
  Increase in the number of yellow wells compared to the reference level, TA1537: 0.54
S. typhimurium TA1537; 2.0 mM, + S9
  Increase in the number of yellow wells compared to the reference level, TA1537: 0.27
S. typhimurium TA1537; 2.0 mM, without S9
  Increase in the number of yellow wells compared to the reference level, TA1537: 0.54
[9]
  phototoxic potential: do not have phototoxic potential
[9]; ratio of IC50 of unirradiated to irradiated cells
  PIF (photoirritation factor): No phototoxicity
[9]; with and without UVA exposure
  cytotoxicity towards mouse fibroblasts: devoid of cytotoxicity
S. typhimurium TA1535; 0.5 mM, + S9
  Increase in the number of yellow wells compared to the reference level, TA1535: 0.47
S. typhimurium TA1535; 0.5 mM, without S9
  Increase in the number of yellow wells compared to the reference level, TA1535: 0.92
S. typhimurium TA1535; 1.0 mM, + S9
  Increase in the number of yellow wells compared to the reference level, TA1535: 0.23
S. typhimurium TA1535; 1.0 mM, without S9
  Increase in the number of yellow wells compared to the reference level, TA1535: 0.55
S. typhimurium TA1535; 2.0 mM, + S9
  Increase in the number of yellow wells compared to the reference level, TA1535: 0.35
S. typhimurium TA1535; 2.0 mM, without S9
  Increase in the number of yellow wells compared to the reference level, TA1535: 1.10
